Experimental data: PMC10861593, “Kisspeptin-10 binding to Gpr54 in osteoclasts prevents bone loss by activating Dusp18-mediated dephosphorylation of Src” (Nature Communications, 2024)
Where a SMILES comes first, the peptide text is derived from it.

Tests used:
DUSP18 [1] = target: T1, DUSP18 (Homo sapiens, UniProt Q8NEJ0); test: SPR (Biacore T200) binding to DUSP18
T1 construct: For purification of full-length WT human DUSP18 and DUSP18 (C104S) proteins; His (N); made in house; host or cells: E. coli
T1 sequence (Q8NEJ0 1-188): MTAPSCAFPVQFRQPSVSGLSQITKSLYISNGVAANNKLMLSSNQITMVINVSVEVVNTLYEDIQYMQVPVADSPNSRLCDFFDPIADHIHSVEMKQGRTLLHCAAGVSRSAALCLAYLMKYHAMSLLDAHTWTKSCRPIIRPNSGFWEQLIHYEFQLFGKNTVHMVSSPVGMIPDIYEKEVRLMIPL
Procedure: SPR was determined using a Biacore T200 instrument (GE). SRC or DUSP18 protein was immobilized on the sensor chip (CM5) using the amine-coupling method according to standard protocols. Immobilization was performed according to the manufacturer’s recommendations. SRC protein (64 ug/mL, pH5.0) or DUSP18 protein (25 ug/mL, pH7.4) was diluted in 10 mM acetate buffer or 10 mM PBS buffer. Sh2-sh3 (100 ug/mL, pH5.0) was diluted in 10 mM acetate buffer. The kinetics and affinity assay were examined at 25 °C at a flow rate of 30 µl/minute using PBS buffer with 0.05% Tween-20. The KD values were calculated with the kinetics analysis (1:1 model) of Biacore T200 evaluation software. The interaction of GPR54 CT, peptides of PR motifs with Src or DUSP18, and the interaction of DUSP18 and Src were analyzed respectively by regeneration with pH 2.0 Gly-HCl buffer.
The C terminus of human GPR54 (H329- L398) and mouse Gpr54 (R331- L396) cDNAs were subcloned into a pGEX-4T2 vector. For purification of full-length WT human DUSP18 and DUSP18 (C104S) proteins, DUSP18 was cloned into pMCSG7 vector. […]

GPR54 / Src interaction = test: Co-IP: interaction of GPR54 with Src in transfected 293T cells; assay type: cell-based, human; details: inhibitor 1 h (U73122 10 µM, Staurosporine 0.25 µM, LY3214996 10 µM, KN-93 10 µM, Saracatinib 10 µM), then 10 nM Kp-10 20 min
Procedure: Data represent means ± SEM. P values were determined by one-way ANOVA analysis (b, c, e, g, i, k). Representative results were obtained from at least three independent experiments. Source data are provided as a Source Data file.
Whole-cell proteins were extracted using 1x RIPA buffer (25 mM Tris, pH7.5, 150 mM NaCl, 0.5% Sodium deoxycholate, 1% Triton-X-100) supplemented with protease inhibitors (Complete Mini, Roche) and phosphatase inhibitors (phosphatase inhibitor cocktail set I and II, Calbiochem). Immunoprecipitation and immunoblotting with indicated antibodies were performed as described in Supplementary Table 1. Image Jsoftware (V1.52) was used for quantification analysis. Uncropped and unprocessed blots are presented in the Supplementary Information file.
Error bars are ± SEM. […] Source data are provided as a Source Data file.

Dusp18 knockout mice = test: bone and osteoclast parameters in Dusp18 knockout mice; assay type: in vivo, mouse; details: TRAP staining and osteoclast parameters, femur
Description: Data represent means ± SEM. […] Representative results were obtained from at least three independent experiments. Source data are provided as a Source Data file.

DUSP18 [2] = test: GST pull-down with WCL of 293T cells transfected with DUSP18; assay type: binding; details: WCL of 293T cells transfected with DUSP18-HA
Procedure: Beads were analyzed by phosphatase activity assay (a), mass spectrometry assay (b), IB analysis (c) and quantification of protein levels (d). e, f Protein co-localization was analyzed by IF staining in primary pre-osteoclast with 10 nM Kp-10 treatment for 20 min. […] Scale bar, 50 µm. g, h binding affinity was measured by SPR binding analysis. […] Data represent means ± SEM. P values were determined by one-way ANOVA analysis (a, d, j, l) or two-tailed Student’s t-test (f). Representative results were obtained from at least three independent experiments. Source data are provided as a Source Data file.
Supplementary Fig. 6 a, b IB and quantification of protein levels analysis. […] Error bars are ± SEM. P-values were determined by two-tailed Student’s t-test (b, e) or by one-way ANOVA analysis (h, j). *P <0.05, **P <0.01, ***P <0.001, ****P <0.0001. Representative results were observed from at least three independent experiments. Source data are provided as a Source Data file.

Src = test: GST pull-down with WCL of 293T cells transfected with HA-Src; assay type: binding
Description: Fig. 2 GPR54 recruited Src via the PR motif in GPR54 C-Terminus. a Sequence analysis of the PR motif in multiple species of GPR54 CT. b SH3 domain protein-binding array using the TranSignal™ SH3 Domain Array kit. The principal Src binding region is circled in red evident (1 Src; 2 the dilution of Src in half). c SPR binding-affinity measurement of Src and GPR54 CT. […] GPR54 CT bound with the SH3 domain of Src mainly via the key residues including R336, P339 and P342. e–h IB analysis of total samples and GST pull-downs using GST proteins including GST, GST-GPR54 CT, GST-GPR54 CT m1 (R336A&P339A), GST-GPR54 CT m2 (delta 339–344) incubated separately with WCL of 293 T cells transfected with HA-Src (e) and quantification of protein levels (f), IB analysis of WCL and anti-GPR54 IP assays derived from RAW264.7 cells induced by Kp-10 for 20 min (g) and quantification of protein levels (h). i, j IF staining was carried out using pre-osteoclasts differentiated from BMMs with M-CSF (10 ng/ml) and RANKL (50 ng/ml) stimulation for 2 days, then treated with 10 nM Kp-10 for 20 min. Representative images of endogenous Gpr54 and Src were shown by total internal reflection fluorescence (TIRF) microscopy (i), and the Mander’s overlap coefficient (MOC) as a measure of colocalization in cells from multiple images taken randomly (j). Scale bar, 50 μm. Data represent means ± SEM. […] These are best readings. […]

[3] = target: T2, His-SRC protein, Src (G85-L536) (human, UniProt P12931 85-536); test: SPR; Biacore T200, SRC protein immobilised on CM5 by amine coupling (64 ug/mL, pH 5.0, acetate); 25 °C, 30 µl/minute, PBS with 0.05% Tween-20; kinetics analysis, 1:1 model; details: both partners purified
T2 construct: human Src, G85-L536, in pFastBac HT B; In the SPR it is called 'SRC protein'; removal of the tag is not mentioned; source: Sf9 (Bac-to-Bac baculovirus), purified; not shown: His6, N-terminal, kept

`CC(C)[C@H](NC(=O)[C@@H](N)CCCNC(=N)N)C(=O)N[C@@H](CS)C(=O)N1CCC[C@H]1C(=O)N[C@@H](CS)C(=O)N[C@@H](CS)C(=O)N[C@@H](CCCNC(=N)N)C(=O)O` [Gpr54^336–342] (H-RVCPCCR-OH; N-terminus and C-terminus assumed) gave a kon (DUSP18 [1]; printed in the picture of the figure, read-out: ka) of 1130 ± 9500 M⁻¹ s⁻¹.

With `COc1ccc(S(=O)(=O)N(CCO)c2ccccc2CN(C)C/C=C/c2ccc(Cl)cc2)cc1` [KN-93] the “effect on Kp-10 induced interaction of GPR54 with Src” value (GPR54 / Src interaction) was “not by the inhibitors”.

In the case of `O=C(Cc1ccc(-c2ccc(OCCN3CCOCC3)cc2)cn1)NCc1ccccc1` [KX2-391], the “rescue of Dusp18 deletion induced osteoclast activity” value (Dusp18 knockout mice) is reported as “efficiently rescued”.

With `COc1ccc2c(c1)CC[C@@H]1[C@@H]2CC[C@]2(C)[C@@H](NCCCCCCN3C(=O)C=CC3=O)CC[C@@H]12` [U73122] the “effect on Kp-10 induced interaction of GPR54 with Src” value (GPR54 / Src interaction) was “not by the inhibitors”.

“Gpr54^339–344: right-shifted mouse Gpr54 peptide which corresponds to the PxxRxR motif (PCCRQR)” was tested, and the “SPR curve when titrated with Dusp18” value (DUSP18 [1]; synthesized mouse Gpr54 peptide) was “generated an unfitted SPR curve”.

With “R336A&P339A mutant of human GPR54 CT: GST-GPR54 CT m1 (R336A&P339A)” the “binding of DUSP18 (GST pull-down)” value (DUSP18 [2]) was “dampened its interaction with DUSP18” and the “binding of Src (GST pull-down)” value (Src) was “dramatically dampened the interaction of Src with GPR54 CT”.

B1: peptide of GPR54^336–356 (peptide, UniProt Q969F8 336-356, looked up)
peptide: RVCPCAPRRPRRPRRPGPSDP
notes: human GPR54 (KiSS1R), residues 336-356 of the PR motif; source: synthetic peptide (GL Biochem)
In the case of B1, the Kd [3] is reported as 4.24 µM.

AFRRVCPCAPRR (peptide, UniProt Q969F8 333-344, looked up, source: synthetic peptide (GL Biochem)) [GPR54^333–344 (N-terminal half of the PR motif)] gave a Kd [3] of 28.3 µM.

B2: △339–344 (deletion sign: △) mutant of GPR54 CT: GST-GPR54 CT m2 (delta 339–344) (protein)
chain: HFRQAFRRVCPRRPRRPGPSDPAAPHAELLRLGSHPAPARAQKPGSSGLAARGLCVLGEDNAPL
modifications: left off: GST, N-terminal, kept
With B2 the “binding of DUSP18 (GST pull-down)” value (DUSP18 [2]) was “abolished the binding with DUSP18” and the “binding of Src (GST pull-down)” value (Src) was “completely abolished the binding of Src with GPR54 CT”.
